This note sets out measurements from ChEMBL document CHEMBL3507680, “University of Dundee, Gates Library screen for HepG2 cell viability”.

The structures appear in SMILES notation.

This series is described as follows: Human HepG2 cell viability assay in 384 well format. The class given is toxicity, cell-based. The arrangement: dose 125 nL, time 70.5 hour; cytotoxicity at 70.5 h: concentration not given beside the values. The following applies: HepG2 cells, read-out: Inhibition.
For `COc1c(CNCC(O)c2cccc(F)c2)c(C(C)C)nn1C` (configuration not stated), the cytotoxicity at 70.5 h came out at 2.55%.

`Cc1noc(C)c1CSCc1csc(CS(C)(=O)=O)n1`: the cytotoxicity at 70.5 h was found to be 0.624%.

In the case of `Cc1cc(C(=O)N2CCCC(c3cc(=O)nc4n3CCC4)C2)on1` (configuration not stated), the cytotoxicity at 70.5 h is -6.58%.

For `O=C(NCc1nnc2n1CCC2)N1CCc2sccc2C1`, the cytotoxicity at 70.5 h is -6.3%.

As to `COc1c(C(=O)N2CCNC(=O)C2)cnc2c1c(C)nn2C`, the cytotoxicity at 70.5 h is 21%.

Regarding `CC(C)c1nc2cc(NC(=O)c3n[nH]c4c3CCC4)ccc2n1C`, the cytotoxicity at 70.5 h was -9.08%.

`Cc1cccc(C(C(=O)NCC2(Cn3nc(C)cc3C)CC2)N(C)C)c1` (configuration not stated): the cytotoxicity at 70.5 h is -2.42%.

For the molecule `Cn1cc(N2C[C@@H]3CN(Cc4ccccn4)C[C@@H]3C2=O)cn1`, the cytotoxicity at 70.5 h was found to be 24.4%.

As for `CC(=O)c1c(C)nn(CC(=O)N2Cc3cnc(CC(C)C)nc3C2)c1C`, the cytotoxicity at 70.5 h is -8.3%.

On to `Cc1ccoc1C(=O)N1CC[C@@]2(C[C@H](NS(C)(=O)=O)CCO2)C1`, for which the cytotoxicity at 70.5 h is -18.1%.

For `O=c1c2sccc2ncn1CC(O)CN1CCOCC1` (configuration not stated), the cytotoxicity at 70.5 h was -10.3%.

For the molecule `CCc1n[nH]c(C2CN(C(=O)c3csnn3)CCO2)n1` (configuration not stated), the cytotoxicity at 70.5 h is -18.6%.

For the molecule `CN(C)c1nccc(N2CCO[C@H]3CN(CC4CCOCC4)C[C@H]32)n1`, the cytotoxicity at 70.5 h is -7.1%.

For the molecule `CN(Cc1ncc[nH]1)C(=O)C(C)(C)NC(=O)c1cccs1`, the cytotoxicity at 70.5 h is -3.2%.

On to `Cc1ccc(N2CC3(CCN(Cc4nccn4C)C3)CC2=O)s1` (configuration not stated), for which the cytotoxicity at 70.5 h is -14.5%.

With `CCCn1ncc2c(C(=O)Nc3n[nH]c(SC)n3)cc(C3CC3)nc21`, the cytotoxicity at 70.5 h turned out to be 5.71%.

Take `CCOCC(O)CN1CCN(C(=O)Cc2ccccc2C)CC1` (configuration not stated): the cytotoxicity at 70.5 h was -1.93%.

As to `O=C(NC1CCCN(CCCc2ccccc2)C1)c1ccncc1` (configuration not stated), the cytotoxicity at 70.5 h was -2.32%.

On to `CC1c2ncc(Cn3cncn3)n2CCN1C(=O)Cc1cccs1` (configuration not stated), for which the cytotoxicity at 70.5 h is -6.55%.

Turning to `O=C(c1ccno1)N1CC[C@@H]2O[C@@H](COCCN3CCCC3)CC[C@@H]21`, the cytotoxicity at 70.5 h was -17.9%.

With `Cc1cnn(CCNCc2csc(-c3cccs3)n2)c1`, the cytotoxicity at 70.5 h was -4.79%.

As to `COc1cccc2cc(CNCc3ccc(N4CCCC4)nc3)oc12`, the cytotoxicity at 70.5 h came to 16%.

Consider `O=S(=O)(c1ccccc1Cl)N1CCc2nc(C3CCNCC3)ncc2C1`, for which the cytotoxicity at 70.5 h was -3.67%.

As to `O=C(c1cccc(F)c1)N1C[C@H]2CCCC(OCc3cccnc3)[C@H]2C1` (some centres not stated), the cytotoxicity at 70.5 h was -7.83%.

Turning to `COCCOCC(=O)NC(C#N)c1cc(Cl)cc(Cl)c1` (configuration not stated), the cytotoxicity at 70.5 h was 19.4%.

Turning to `CNC(=O)C1CN(c2ccnc(C)n2)CCN1Cc1ccccc1` (configuration not stated), the cytotoxicity at 70.5 h was -3.79%.

Consider `CCCc1nc(N[C@H]2COC[C@@H]2N2CCCC2)c2cnn(C)c2n1`, for which the cytotoxicity at 70.5 h was -7.83%.

With `Cc1cnn(CC2CCCN2C(=O)c2n[nH]c(=O)c3ccccc23)c1` (configuration not stated), the cytotoxicity at 70.5 h is -7.98%.

For `O=C(CCn1cccn1)N1CC[C@@H](c2ccc3ccccc3c2)[C@H](O)C1`, the cytotoxicity at 70.5 h was determined as 3.07%.

Turning to `CSc1ccccc1NC(=O)N1C[C@@H](N(C)C)[C@H](c2ccc(C)cc2)C1`, the cytotoxicity at 70.5 h is -13.9%.

`NC(=O)c1cn[nH]c1C1CCCN1C(=O)c1ccccn1` (configuration not stated): the cytotoxicity at 70.5 h was -4.23%.

In the case of `CC(=O)NCCCNC(=O)N1CCN(c2cc(F)ccc2F)CC1`, the cytotoxicity at 70.5 h is -6.3%.

In the case of `CC(=O)N1CCC(c2nccnc2-c2ccc(C(=O)O)cc2)CC1`, the cytotoxicity at 70.5 h came out at 20%.

As to `CO[C@H]1C[C@@H]2CN(C(=O)c3cc4cccc(F)c4[nH]3)C[C@@H]2C1`, the cytotoxicity at 70.5 h was -6.67%.

For the molecule `CC(C)(C)S(=O)(=O)CCNC(=O)c1cnc(-c2ccccc2)nc1`, the cytotoxicity at 70.5 h is -0.525%.

Take `O=C(C1CCOCC1)N1C[C@@H]2OCCN(CCN3CCCC3)[C@@H]2C1`: the cytotoxicity at 70.5 h was -3.55%.

As for `CS(=O)(=O)c1ccc(Cl)c(C(=O)NCCC2=CCCCC2)c1`, the cytotoxicity at 70.5 h came to 32.9%.
